Columns and labels:
[1] = room temperature; cited from earlier work
[2] = Comparison of products: duration of disinfectant effectiveness
[3] = Comparison of products: corrosivity (pH); format: physicochemical
[4] = Comparison of products: filmogenic properties; format: physicochemical
[5] = Comparison of products: stability; format: physicochemical
[6] = Comparison of products: compatibility with detergents; format: physicochemical
people [7] = assay: Comparison of products: handling hazards (adverse effects), harm to people; parameters: species or system human
people [8] = assay: Comparison of products: application in the presence of people; parameters: species or system human

Compound | concentration with bactericidal activity [1] [%] | concentration with bacteriostatic activity [1] [%] | Duration of effectiveness [2] [days] | Corrosivity: irritancy [3] | Corrosivity: pH [3] | Filmogenic properties [4] | Stability [5] | Compatibility with detergents [6] | Handling hazards (adverse effects) (people [7]; contact with skin and eyes) | Handling hazards (adverse effects) (people [7]; exposure to high concentrations) | Application in the presence of people (people [8])
OO [hydrogen peroxide] | 6 | 3 | – | – | – | – | – | – | – | – | –
OCl [Sodium hypochlorite] | – | – | 1 | irritant | ~11 | No | Not stable, chlorine solutions | Not compatible. Sodium hypochlorite | Liquid chlorine causes severe burns | cause nausea and vomiting. | No and ventilation recommended

— patent US20240099301A1, “Disinfecting and Sanitizing Composition, Method for Preparing the Composition and Use of Same” (SOCIEDAD QUÍMICA ECOLÓGICA SPA, priority 2021, published 2024)
